Measured values as given in patent US20220127297A1, “Novel Antibacterial 3"-Derivatives Of 4,6-Disubstituted 2,5-Dideoxystreptamine Aminoglycoside Antibiotics” (AGILeBiotics B.V., priority 2018, published 2022).
In brackets after ≈: the same amount, converted by molar mass. Where two headings read alike, the source gives them in different places.

Assays:
[1] = tested on: Klebsiella pneumoniae ATCC 43816; test: Murine neutropenic thigh model of infection; assay type: in vivo, male CD-1 mice
Procedure: 4.1 Murine Neutropenic Thigh Model of Infection (Kiebsiella Pneumoniae ATCC 43816)
A comparator antibiotic (meropenem; Cat. No. 1392454, USP) was used during both studies.
During the first study ABX5006 and ABX5020 were tested at a dose of 64 mg/kg (group 5 for ABX5006, group 8 for ABX5020), 16 mg/kg (group 4 for ABX5006, group 7 for ABX5020) and of 4 mg/kg (group 3 for ABX5006, group 6 for ABX5020).
During a second study ABX5026 and ABX5039 were tested at a dose of 4 mg/kg (group 5 for ABX5026, group 8 for ABX5039), 1 mg/kg (group 4 for ABX5026, group 7 for ABX5039) and of 0.25 mg/kg (group 3 for ABX5026, group 6 for ABX5039).
Animals were dosed subcutaneously (10 mL/kg) twice with 8 h interval. […] A CFU count below limit of detection (LOD=1.0×10^2 CFU/mL) was substituted with the value 0 in order to perform statistical analysis.
Inoculum preparation for intramuscular infection. The strain was streaked out onto MH agar.

[2] = tested on: clinical isolates of multidrug-resistant Klebsiella pneumoniae (and ATCC43816); test: MIC determination at Fidelta, clinical isolates; assay type: cell-based; conditions: Klebsiella pneumoniae
Excerpt: (§1) 3.4.2 MIC Determination at Fidelta (Croatia)
(§2) Tested reference compounds. Amikacin sulfate (Cat. No. 01693, Chem-Impex), Gentamicin sulfate (Cat. No. G4918, Sigma Aldrich), Ceftazidime Pentahydrate (Cat. No. 1098130, USP), Meropenem (Cat. No. 1392454, USP), Tobramycin (Cat. No. 1667508, USP).
(§3) Microbial strains. Klebsiella pneumoniae KP-1919 (abdomen), Klebsiella pneumoniae KP-1935 (urine), Klebsiella pneumoniae KP-1936 (abscess), Klebsiella pneumoniae KP-1937 (blood), Klebsiella pneumoniae KP-1942 (urine), Klebsiella pneumoniae KP-1944 (blood), Klebsiella pneumoniae KP-2027 (tracheal aspirate), Klebsiella pneumoniae KP-2029 (urine), Klebsiella pneumoniae KP-2030 (trachea), Klebsiella pneumoniae KP-2031 (skin), Klebsiella pneumoniae KP-2032 (urine), Klebsiella pneumoniae KP-2033 (urine), Klebsiella pneumoniae KP-2034 (urine), Klebsiella pneumoniae KP-2035 (urine), Klebsiella pneumoniae KP-2036 (urine), Klebsiella pneumoniae KP-2037 (urine), Klebsiella pneumoniae ATCC 43816, Pseudomonas aeruginosa PA-1948 (wound), Pseudomonas aeruginosa PA-1949 (urine), Pseudomonas aeruginosa PA-1950 (sputum), Pseudomonas aeruginosa PA-1952 (wound), Pseudomonas aeruginosa PA-1953 (urine), Pseudomonas aeruginosa PA-1954 (sputum), Pseudomonas aeruginosa PA-1967 (blood), Pseudomonas aeruginosa ATCC27853, Acinetobacter baumannii AB-1931 (urine), Acinetobacter baumannii AB-1932 (urine), Acinetobacter baumannii AB-2017 (bronchial aspirate), Acinetobacter baumannii AB-2018 (skin), Acinetobacter baumannii AB-2019 (bronchial aspirate), Acinetobacter baumannii AB-1964 (blood), Acinetobacter baumannii AB-2025 (skin), Acinetobacter baumannii AB-2026 (skin), Acinetobacter baumannii ATCC17978, methicillin-resistant Staphylococcus aureus MRSA-1995 (liquor), methicillin-resistant Staphylococcus aureus MRSA-1998 (wound), methicillin-resistant Staphylococcus aureus MRSA-1999 (skin), methicillin-resistant Staphylococcus aureus MRSA-2003 (wound), vancomycin-resistant Enterococcus faecium VRE-2005 (urine), vancomycin-resistant Enterococcus faecium VRE-2006 (urine), vancomycin-resistant Enterococcus faecium VRE-2007 (urine), vancomycin-resistant Enterococcus faecium VRE-2008 (urine), vancomycin-resistant Enterococcus faecium VRE-2009 (urine), vancomycin-resistant Enterococcus faecium VRE-2010 (urine), vancomycin-resistant Enterococcus faecium VRE-2011 (rectum), vancomycin-resistant Enterococcus faecium VRE-2012 (rectum), vancomycin-resistant Enterococcus faecium VRE-2013 (rectum).
(§4) Culture media and equipment. BBL™ Mueller Hinton Broth (REF 275730, Lot. 7009699, Becton Dickinson); Mueller Hinton Agar 2 (Ref. No. 97580-500G-F, Lot. No. BCBV4646, Sigma); Cellstar, 96-well plates, U-bottom (Cat. No. 650180, Lot. No. E14123EB, Greiner Bio-one); 96-well deep well plate, 1 mL (Cat. No. 278606, Nunc); Incubator (Binder); Laminar flow (Thermo Scientific); BioPhotometer (Eppendorf); DEN-1B (McFarland Densitometer, Biosan); McFarland standards (polymer microparticle suspension, Biosan).
(§5) Compound preparation. For testing, 5 mg/mL DMSO solutions of the test compounds and reference antibiotics were used. Out of these DMSO solutions, 43.5 μL was transferred to 1656.5 μL of MH media in a deep well plate. Out of these working solutions 100 μL was transferred to wells in the third column of 96-well plates. Plates are previously filled with 50 μL of MH media in all wells except for the wells in the third column. After compound and antibiotic addition, 50 μL was transferred from the third to the fourth column, then from the fourth to the fifth and so on. In this manner, the compounds and antibiotics were plated in 96-well plate in serial two-fold dilutions giving a final concentration range of 64-0.125 μg/mL.
(§6) Inoculum preparation. Designations used for clinical isolates were from Fidelta strain collection bank. Microorganisms used were all revived from skim milk storage at −70° C. by plating them on MH agar plates.

[3] = tested on: clinical isolates of methicillin-resistant Staphylococcus aureus (MRSA); test: MIC determination at Fidelta, clinical isolates; assay type: cell-based
Excerpt: as §1, §2, §3, §4, §5, §6

[4] = tested on: clinical isolates of Vancomycin-resistant Enterococcus faecium (VRE); test: MIC determination at Fidelta, clinical isolates; assay type: cell-based
Excerpt: as §1, §2, §3, §4, §5, §6

[5] = ATCC43816, KP-1919, Abdomen/VIM, ESBL
[6] = ATCC43816, KP-1935, Urine/ESBL, NDM
[7] = ATCC43816, KP-1936, Abscess/NDM
[8] = ATCC43816, KP-1937, Blood/VIM, ESBL
[9] = ATCC43816, KP-1942, Urine (catheter)/VIM
[10] = ATCC43816, KP-2027, Tracheal aspirate/ESBL, OXA-48, ColR
[11] = ATCC43816, KP-2029, Urine/ESBL, OXA-48
[12] = ATCC43816, KP-2030, Trachea/ESBL, OXA-48
[13] = ATCC43816, KP-2031, Skin/ESBL, OXA-48
[14] = ATCC43816, KP-2032, Urine/ESBL, OXA-48
[15] = ATCC43816, KP-2033, Urine/OXA-A8
[16] = ATCC43816, KP-2034, Urine/ESBL, OXA-48
[17] = ATCC43816, KP-2035, Urine/ESBL, OXA-48
[18] = ATCC43816, KP-2037, Urine/ESBL, OXA-48

| Structure (SMILES) | MIC90 [2, 5] | MIC90 [2, 6] | MIC90 [2, 7] | MIC90 [2, 8] | MIC90 [2, 9] | MIC90 ([2]; ATCC43816, KP-1944, Blood/NDM) | MIC90 [2, 10] | MIC90 [2, 11] | MIC90 [2, 12] | MIC90 [2, 13] | MIC90 [2, 14] | MIC90 [2, 15] | MIC90 [2, 16] | MIC90 [2, 17] | MIC90 ([2]; ATCC43816, KP-2036, Urine/ESBL) | MIC90 [2, 18] | MIC90 ([3]; MRSA-1995, Liquor) | MIC90 ([3]; MRSA-1998, Wound) | MIC90 ([3]; MRSA-1999, Skin) | MIC90 ([3]; MRSA-2003, Wound) | other results |
| --- | --- | --- | --- | --- | --- | --- | --- | --- | --- | --- | --- | --- | --- | --- | --- | --- | --- | --- | --- | --- | --- |
| C[C@@H](O)[C@H]1C(=O)N2C(C(=O)O)=C(S[C@@H]3CN[C@H](C(=O)N(C)C)C3)[C@H](C)[C@H]12 [Meropenem, meropenem, reference compound] | 4 mg/L (≈ 10.4 µM) | 32 mg/L (≈ 83.4 µM) | > 64 mg/L | 32 mg/L (≈ 83.4 µM) | 64 mg/L (≈ 167 µM) | > 64 mg/L | 4 mg/L (≈ 10.4 µM) | 4 mg/L (≈ 10.4 µM) | 4 mg/L (≈ 10.4 µM) | 2 mg/L (≈ 5.22 µM) | 2 mg/L (≈ 5.22 µM) | 16 mg/L (≈ 41.7 µM) | 16 mg/L (≈ 41.7 µM) | 2 mg/L (≈ 5.22 µM) | 16 mg/L (≈ 41.7 µM) | 2 mg/L (≈ 5.22 µM) | 64 mg/L (≈ 167 µM) | 8 mg/L (≈ 20.9 µM) | 64 mg/L (≈ 167 µM) | 8 mg/L (≈ 20.9 µM) | Change from vehicle group ([1]; Log CFU/g thigh, dose 100 mg/kg SC BID): −4.56; Avg. Log CFU/g thigh ([1]; dose 100 mg/kg SC BID, 24 h post infection): 4.95 Log CFU/g; Change from vehicle group ([1]; dose 100 mg/kg, SC, BID, Avg. Log CFU/g thigh vs vehicle): 8.17; Avg. Log CFU/g ([1]; dose 100 mg/kg, SC, BID, thigh, 24 hours post infection): 1.61 Log CFU/g; survival rate ([1]; first study, vehicle group 50% mortality): 100%; MIC90 ([2]; ATCC43816): < 0.125 mg/L; MIC90 ([4]; VRE-2005, Urine): > 64 mg/L; MIC90 ([4]; VRE-2006, Urine): > 64 mg/L; MIC90 ([4]; VRE-2007, Urine): > 64 mg/L; MIC90 ([4]; VRE-2008, Urine): > 64 mg/L; MIC90 ([4]; VRE-2009, Urine): > 64 mg/L; MIC90 ([4]; VRE-2010, Urine): > 64 mg/L; MIC90 ([4]; VRE-2011, Rectum): > 64 mg/L; MIC90 ([4]; VRE-2012, Rectum): > 64 mg/L; MIC90 ([4]; VRE-2013, Rectum): > 64 mg/L |
| CC(C)(O/N=C(\C(=O)N[C@@H]1C(=O)N2C(C(=O)[O-])=C(C[n+]3ccccc3)CS[C@H]12)c1csc(N)n1)C(=O)O [Ceftazidime, reference compound] | 64 mg/L (≈ 117 µM) | > 64 mg/L | > 64 mg/L | > 64 mg/L | > 64 mg/L | > 64 mg/L | > 64 mg/L | > 64 mg/L | > 64 mg/L | > 64 mg/L | > 64 mg/L | > 64 mg/L | > 64 mg/L | > 64 mg/L | > 64 mg/L | > 64 mg/L | > 64 mg/L | > 64 mg/L | > 64 mg/L | > 64 mg/L | MIC90 ([2]; ATCC43816, K. pneumoniae ATCC43816 strain, read-out: MIC 90): < 0.125 mg/L; MIC90 ([4]; VRE-2005, Urine): > 64 mg/L; MIC90 ([4]; VRE-2006, Urine): > 64 mg/L; MIC90 ([4]; VRE-2007, Urine): > 64 mg/L; MIC90 ([4]; VRE-2008, Urine): > 64 mg/L; MIC90 ([4]; VRE-2009, Urine): > 64 mg/L; MIC90 ([4]; VRE-2010, Urine): > 64 mg/L; MIC90 ([4]; VRE-2011, Rectum): > 64 mg/L; MIC90 ([4]; VRE-2012, Rectum): > 64 mg/L; MIC90 ([4]; VRE-2013, Rectum): > 64 mg/L |
